# Experimental data published in US11214594B2, “Antimicrobial peptide having synergistic antibacterial effect with antibiotics on multidrug resistant bacteria, and use thereof” (priority 2016, dated 2022).
# Where a SMILES comes first, the peptide text is derived from it.
# How the values were obtained:
# [1] = system: A. baumannii; assay: MIC of antibiotic during combined treatment with antimicrobial peptide; type: cell-based, Acinetobacter baumannii; settings: A. baumannii
# Method: (§1) Thereafter, the MIC value of each mixed solution was determined by diluting the antibiotic solution with the MH medium, adding 50 μl of the diluted solution to each well, and performing an experiment even under a reversed condition.
# [2] = system: B. subtilis; assay: microbe, parasite or virus in culture; type: cell-based, Bacillus subtilis
# Method: (§2) For the antibacterial activity, a minimal inhibitory concentration (MIC) of a peptide in which fungus bodies were not split in an MH medium with sufficient nutrients was measured.
# (§3) Specifically, the strains described in the following [Table 2] were purchased and diluted with an MH medium such that the number of bacteria was 2×10^6 colony-forming units (CFUs), 100 μl of each of the diluted strains was aliquoted into a 96-well microtiter plate, and then 100 μl of a peptide solution diluted with the MH medium (solution diluted stepwise at 2: 1) was added to each well.
# [3] = system: E. coli; assay: microbe, parasite or virus in culture; type: cell-based, Escherichia coli; settings: 16 h
# Method: as §2, §3
# [4] = system: MDREC 1229; assay: microbe, parasite or virus in culture; type: cell-based, Escherichia coli
# Method: as §2, §3
# [5] = system: MDREC 1238; type: cell-based, Escherichia coli
# Method: as §2, §3
# [6] = system: S. epidermidis; assay: microbe, parasite or virus in culture; type: cell-based, Staphylococcus epidermidis
# Method: as §2, §3
# [7] = system: MDRST 8007; assay: Minimal inhibitory concentration (MIC), single agent; type: cell-based, Salmonella typhimurium; settings: agent alone
# Method: as §2, §3
# [8] = system: MDREC 1229; assay: MIC of antibiotic during combined treatment with antimicrobial peptide; type: cell-based, Escherichia coli
# Method: (§4) Specifically, the strains described in [Table 2] were prepared and diluted with an MH medium such that the number of bacteria was 2×10^6 colony-forming units (CFUs) per 1 ml, 100 μl of the diluted strains was each aliquoted into a 96-well microtiter plate, and then 50 μl of a peptide solution diluted with the MH medium from the MIC value (solution diluted stepwise at 2: 1) was added to each well. Thereafter, the MIC value of each mixed solution was determined by diluting the antibiotic solution with the MH medium, adding 50 μl of the diluted solution to each well, and performing an experiment even under a reversed condition.
# [9] = system: MRSA 3126; type: cell-based, Staphylococcus aureus; settings: 3126
# Method: as §2, §3
# [10] = system: MRSA 3114; type: cell-based, Staphylococcus aureus; settings: 3114
# Method: as §2, §3
# [11] = system: P. aeruginosa; assay: microbe, parasite or virus in culture; type: cell-based, Pseudomonas aeruginosa
# Method: as §2, §3
# [12] = system: S. aureus; assay: microbe, parasite or virus in culture; type: cell-based, Staphylococcus aureus
# Method: as §2, §3
# [13] = system: MDRPA 2003; type: cell-based, Pseudomonas aeruginosa
# Method: as §2, §3
# [14] = system: MDRPA 2002; type: cell-based, Pseudomonas aeruginosa
# Method: as §2, §3
# [15] = system: E. coli; assay: MIC of antibiotic during combined treatment with antimicrobial peptide; type: cell-based, Escherichia coli; settings: E. coli
# Method: as §1
# [16] = system: MDRAB 12035; assay: as above; type: cell-based, Acinetobacter baumannii
# Method: as §4
# [17] = combined with peptide at 1 μg/ml
# [18] = combined with peptide at 2 μg/ml
# [19] = combined with peptide at 4 μg/ml
# [20] = combined with peptide at 6 μg/ml
# [21] = combined with peptide at 8 μg/ml
# [22] = combined with peptide at 16 μg/ml
# [23] = combined with peptide at 32 μg/ml
# [24] = combined with peptide at 64 μg/ml
# [25] = peptide treatment concentration 1 μg/ml
# [26] = peptide treatment concentration 2 μg/ml
# [27] = peptide treatment concentration 4 μg/ml
# [28] = peptide treatment concentration 6 μg/ml
# [29] = peptide treatment concentration 8 μg/ml
# [30] = peptide treatment concentration 16 μg/ml
# [31] = peptide treatment concentration 32 μg/ml
# [32] = peptide treatment concentration 64 μg/ml
structure (smiles),measurement,setting,value
"CC[C@H](C)[C@H](NC(=O)[C@H](CCCCN)NC(=O)[C@H](Cc1c[nH]c2ccccc12)NC(=O)[C@@H](N)CCCNC(=N)N)C(=O)N[C@@H](Cc1ccccc1)C(=O)N[C@@H](CCCCN)C(=O)N[C@@H](CCCCN)C(=O)N[C@H](C(=O)N1CCC[C@H]1C(=O)N[C@@H](CCCCN)C(=O)N[C@@H](Cc1ccccc1)C(=O)N[C@@H](CC(C)C)C(=O)N[C@@H](Cc1c[nH]cn1)C(=O)N[C@@H](CO)C(=O)N[C@@H](C)C(=O)N[C@@H](CCCCN)C(=O)N[C@@H](CCCCN)C(=O)N[C@@H](Cc1ccccc1)C(N)=O)[C@@H](C)CC [PapMA-1, RWK IFK KIP KFL HSA KKF-NH2] (H-RWKIFKKIPKFLHSAKKF-NH2; N-terminus assumed)","Antibiotic MIC, Erythromycin",[1]; [17],32 µg/mL
same,"Antibiotic MIC, Linezolid",[1]; [17],>128 µg/mL
same,"Antibiotic MIC, Vancomycin",[1]; [17],>128 µg/mL
same,"Antibiotic MIC, Erythromycin",[1]; [18],16 µg/mL
same,"Antibiotic MIC, Linezolid",[1]; [18],128 µg/mL
same,"Antibiotic MIC, Vancomycin",[1]; [18],128 µg/mL
same,"Antibiotic MIC, Erythromycin",[1]; [19],8 µg/mL
same,"Antibiotic MIC, Linezolid",[1]; [19],32 µg/mL
same,"Antibiotic MIC, Vancomycin",[1]; [19],32 µg/mL
same,"Antibiotic MIC, Erythromycin",[1]; [20],2 µg/mL
same,"Antibiotic MIC, Linezolid",[1]; [20],32 µg/mL
same,"Antibiotic MIC, Vancomycin",[1]; [20],16 µg/mL
same,"Antibiotic MIC, Erythromycin",[1]; [21],0.5 µg/mL
same,"Antibiotic MIC, Linezolid",[1]; [21],8 µg/mL
same,"Antibiotic MIC, Vancomycin",[1]; [21],8 µg/mL
same,"Antibiotic MIC, Erythromycin",[1]; [22],0.125 µg/mL
same,"Antibiotic MIC, Linezolid",[1]; [22],4 µg/mL
same,"Antibiotic MIC, Vancomycin",[1]; [22],8 µg/mL
same,"Antibiotic MIC, Erythromycin",[1]; [23],0.0625 µg/mL
same,"Antibiotic MIC, Linezolid",[1]; [23],4 µg/mL
same,"Antibiotic MIC, Vancomycin",[1]; [23],2 µg/mL
same,"Antibiotic MIC, Erythromycin",[1]; [24],0 µg/mL
same,"Antibiotic MIC, Linezolid",[1]; [24],0 µg/mL
same,"Antibiotic MIC, Vancomycin",[1]; [24],0 µg/mL
same,Minimal inhibitory concentration MIC,[2],>128 µg/mL
same,Minimal inhibitory concentration MIC,[3],64 µg/mL
same,Minimal inhibitory concentration MIC,[4],64 µg/mL
same,"Peptide MIC, peptide alone",[4],64 µg/mL
same,Minimal inhibitory concentration MIC,[5],64 µg/mL
same,Minimal inhibitory concentration MIC,[6],>128 µg/mL
same,Minimal inhibitory concentration MIC,[7],64 µg/mL
same,"Antibiotic MIC, Erythromycin",[8]; [25],128 µg/mL
same,"Antibiotic MIC, Linezolid",[8]; [25],>128 µg/mL
same,"Antibiotic MIC, Vancomycin",[8]; [25],>128 µg/mL
same,"Antibiotic MIC, Erythromycin",[8]; [26],32 µg/mL
same,"Antibiotic MIC, Linezolid",[8]; [26],128 µg/mL
same,"Antibiotic MIC, Vancomycin",[8]; [26],>128 µg/mL
same,"Antibiotic MIC, Erythromycin",[8]; [27],16 µg/mL
same,"Antibiotic MIC, Linezolid",[8]; [27],64 µg/mL
same,"Antibiotic MIC, Vancomycin",[8]; [27],>128 µg/mL
same,"Antibiotic MIC, Erythromycin",[8]; [28],8 µg/mL
same,"Antibiotic MIC, Linezolid",[8]; [28],64 µg/mL
same,"Antibiotic MIC, Vancomycin",[8]; [28],>128 µg/mL
same,"Antibiotic MIC, Erythromycin",[8]; [29],4 µg/mL
same,"Antibiotic MIC, Linezolid",[8]; [29],32 µg/mL
same,"Antibiotic MIC, Vancomycin",[8]; [29],128 µg/mL
same,"Antibiotic MIC, Erythromycin",[8]; [30],1 µg/mL
same,"Antibiotic MIC, Linezolid",[8]; [30],16 µg/mL
same,"Antibiotic MIC, Vancomycin",[8]; [30],16 µg/mL
same,"Antibiotic MIC, Erythromycin",[8]; [31],0.25 µg/mL
same,"Antibiotic MIC, Linezolid",[8]; [31],8 µg/mL
same,"Antibiotic MIC, Vancomycin",[8]; [31],8 µg/mL
same,"Antibiotic MIC, Erythromycin",[8]; [32],0 µg/mL
same,"Antibiotic MIC, Linezolid",[8]; [32],0 µg/mL
same,"Antibiotic MIC, Vancomycin",[8]; [32],0 µg/mL
same,Minimal inhibitory concentration MIC,[9],>128 µg/mL
same,Minimal inhibitory concentration MIC,[10],>128 µg/mL
same,Minimal inhibitory concentration MIC,[11],16 µg/mL
same,Minimal inhibitory concentration MIC,[12],>128 µg/mL
same,Minimal inhibitory concentration MIC,[13],32 µg/mL
same,Minimal inhibitory concentration MIC,[14],16 µg/mL
same,"Antibiotic MIC, Erythromycin",[15]; erythromycin combined with peptide at 1 μg/ml,64 µg/mL
same,"Antibiotic MIC, Erythromycin",[15]; erythromycin combined with peptide at 2 μg/ml,32 µg/mL
same,"Antibiotic MIC, Erythromycin",[15]; erythromycin combined with peptide at 4 μg/ml,16 µg/mL
same,"Antibiotic MIC, Erythromycin",[15]; erythromycin combined with peptide at 6 μg/ml,4 µg/mL
same,"Antibiotic MIC, Erythromycin",[15]; erythromycin combined with peptide at 8 μg/ml,2 µg/mL
same,"Antibiotic MIC, Erythromycin",[15]; erythromycin combined with peptide at 16 μg/ml,0.5 µg/mL
same,"Antibiotic MIC, Erythromycin",[15]; erythromycin combined with peptide at 32 μg/ml,0.125 µg/mL
same,"Antibiotic MIC, Erythromycin",[15]; erythromycin combined with peptide at 64 μg/ml,0 µg/mL
same,"Antibiotic MIC, Linezolid",[15]; linezolid combined with peptide at 1 μg/ml,128 µg/mL
same,"Antibiotic MIC, Linezolid",[15]; linezolid combined with peptide at 2 μg/ml,128 µg/mL
same,"Antibiotic MIC, Linezolid",[15]; linezolid combined with peptide at 4 μg/ml,64 µg/mL
same,"Antibiotic MIC, Linezolid",[15]; linezolid combined with peptide at 6 μg/ml,16 µg/mL
same,"Antibiotic MIC, Linezolid",[15]; linezolid combined with peptide at 8 μg/ml,16 µg/mL
same,"Antibiotic MIC, Linezolid",[15]; linezolid combined with peptide at 16 μg/ml,16 µg/mL
same,"Antibiotic MIC, Linezolid",[15]; linezolid combined with peptide at 32 μg/ml,8 µg/mL
same,"Antibiotic MIC, Linezolid",[15]; linezolid combined with peptide at 64 μg/ml,0 µg/mL
same,"Antibiotic MIC, Vancomycin",[15]; vancomycin combined with peptide at 1 μg/ml,>128 µg/mL
same,"Antibiotic MIC, Vancomycin",[15]; vancomycin combined with peptide at 2 μg/ml,>128 µg/mL
same,"Antibiotic MIC, Vancomycin",[15]; vancomycin combined with peptide at 4 μg/ml,>128 µg/mL
same,"Antibiotic MIC, Vancomycin",[15]; vancomycin combined with peptide at 6 μg/ml,32 µg/mL
same,"Antibiotic MIC, Vancomycin",[15]; vancomycin combined with peptide at 8 μg/ml,32 µg/mL
same,"Antibiotic MIC, Vancomycin",[15]; vancomycin combined with peptide at 16 μg/ml,16 µg/mL
same,"Antibiotic MIC, Vancomycin",[15]; vancomycin combined with peptide at 32 μg/ml,4 µg/mL
same,"Antibiotic MIC, Vancomycin",[15]; vancomycin combined with peptide at 64 μg/ml,0 µg/mL
same,Erythromycin MIC during combined treatment with peptide,[16]; [25],32 µg/mL
same,Linezolid MIC during combined treatment with peptide,[16]; [25],>128 µg/mL
same,Vancomycin MIC during combined treatment with peptide,[16]; [25],>128 µg/mL
same,Erythromycin MIC during combined treatment with peptide,[16]; [26],32 µg/mL
same,Linezolid MIC during combined treatment with peptide,[16]; [26],128 µg/mL
same,Vancomycin MIC during combined treatment with peptide,[16]; [26],>128 µg/mL
same,Erythromycin MIC during combined treatment with peptide,[16]; [27],16 µg/mL
same,Linezolid MIC during combined treatment with peptide,[16]; [27],64 µg/mL
same,Vancomycin MIC during combined treatment with peptide,[16]; [27],128 µg/mL
same,Erythromycin MIC during combined treatment with peptide,[16]; [28],4 µg/mL
same,Linezolid MIC during combined treatment with peptide,[16]; [28],32 µg/mL
same,Vancomycin MIC during combined treatment with peptide,[16]; [28],32 µg/mL
same,Erythromycin MIC during combined treatment with peptide,[16]; [29],0.5 µg/mL
same,Linezolid MIC during combined treatment with peptide,[16]; [29],16 µg/mL
same,Vancomycin MIC during combined treatment with peptide,[16]; [29],16 µg/mL
same,Erythromycin MIC during combined treatment with peptide,[16]; [30],0.25 µg/mL
same,Linezolid MIC during combined treatment with peptide,[16]; [30],8 µg/mL
same,Vancomycin MIC during combined treatment with peptide,[16]; [30],16 µg/mL
same,Erythromycin MIC during combined treatment with peptide,[16]; [31],0.125 µg/mL
same,Linezolid MIC during combined treatment with peptide,[16]; [31],4 µg/mL
same,Vancomycin MIC during combined treatment with peptide,[16]; [31],8 µg/mL
same,Erythromycin MIC during combined treatment with peptide,[16]; [32],0 µg/mL
same,Linezolid MIC during combined treatment with peptide,[16]; [32],0 µg/mL
same,Vancomycin MIC during combined treatment with peptide,[16]; [32],0 µg/mL
